SMILES strings stand for the structures. Where a name gives a salt, the structure may show the parent alone. A value given as a limit tells only on which side of the number the result lay.

Consider seven compounds from patent US20250333420A1, “FUSED BICYCLIC PYRIMIDONES AS WRN INHIBITORS” (INCYTE CORPORATION, priority 2023, published 2025).

Assay [1] addresses T1, WRN (Homo sapiens, UniProt Q14191).
T1 construct: A His-tagged construct of WRN (AA S2-S1235) was produced and used for the ATPase assay; His tag; made in house; host or cells: Sf9 insect cells (baculovirus, pFastBac1)
The assay can be described thus: WRN helicase activity assay (fluorescence DNA unwinding). The format is biochemical. Particulars: 1-hr pre-incubation with enzyme; 100 μM ATP, 25 nM forked dsDNA, 1 nM WRN; geometric mean of at least 2 replicates. The protocol:
Compounds of the examples were tested for WRN helicase activity. DNA encoding the target protein, 6×HIS-TEV-WRN-517-945, was produced, cloned and transfected as detailed in Example D. To determine the inhibitory properties of the compounds, a 384 wells plate-based Helicase assay was set up to measure the extent of DNA unwinding (Helicase) activity of WRN. The WRN Helicase assay was designed to measure increase in fluorescence signal using a fluorescence based, donor-quencher paired forked dsDNA oligomer substrate (custom synthesis from Sigma-Aldrich) prepared by annealing equal amounts of oligo GPat-1 ([BHQ2][…]) and oligo GPat-2 ([…][TAM]). Continuous measurement of fluorescent signal was used to optimize the buffer conditions, concentration of enzyme (WRN), concentration of substrates (ATP & dsDNA), and the linearity of the Helicase reaction. All solutions were prepared in the following assay buffer: 50 mM Tris-HCl, pH-7.5, 2 mM MgCl2, 50 mM NaCl, 1 mM EGTA, 0.01% P-20, 0.05% BSA, and 2 mM DTT prepared with nuclease free water.
A serial dilution (1:3 scheme) of the compounds was prepared in neat DMSO and 100 nL of the compounds was dispensed in the Greiner black low volume (Greiner #784076) 384 wells assay plate. An 1-hr pre-incubation of the compounds with enzyme was included. A His-tagged construct of WRN (AA S2-S1235) was produced and used for the ATPase assay. Maximum inhibition control wells were set up with the addition of only assay buffer, and no inhibition control wells were set up with neat DMSO without test compounds. The reaction was initiated by addition of 5 μL substrate mix (200 μM ultrapure ATP, and 50 nM dsDNA prepared in assay buffer) and incubated at 25° C. for 35 min. A typical Helicase reaction consists of 25 nM forked dsDNA, 100 μM ATP, and 1 nM WRN prepared in assay buffer. The WRN Helicase reaction was quenched by the addition of 5 μL ‘STOP’ solution containing 100 mM EDTA (final EDTA concentration 33.33 mM) prepared in assay buffer. The plates were read on BMG PHERAstar FSX using 540/590 module to measure an increase of fluorescence. Data analysis was carried out using the Genedata software following % of control normalization. Fitting parameters include dose response IC50, Hill slope (n), maximum inhibition (S∞), and minimum inhibition (S0). The reported IC50 values for compounds in this invention are the geometric means of at least 2 independent replicates.

The target in assay [2] is T1, WRN. Put plainly: WRN ATPase activity assay (ADP-Glo). It counts as biochemical. Particulars: 1-hr pre-incubation with enzyme; 100 μM ATP, 25 nM forked dsDNA, 1 nM WRN; geometric mean of at least 2 replicates. The protocol:
Compounds of the Examples were tested for WRN ATPase activity. WRN ATPase activity catalyzes ATP hydrolysis to produce ADP and phosphate. DNA encoding the target protein, 6×HIS-TEV-WRN-517-945, was produced, cloned and transfected as detailed in Example D. The amount of ADP produced was measured using ADP-Glo™ Kinase Assay kit from Promega Corporation in a Greiner white regular volume 384 wells assay plate (Greiner #781075). Data was normalized to a standard curve generated using various ADP concentrations and the corresponding luminescent signal intensities at each concentration. The assay conditions were optimized for enzyme concentration (WRN), substrate concentrations (ATP & dsDNA), and the linearity of the ATPase reaction, in the following assay buffer: 50 mM Tris-HCl, pH-7.5, 2 mM MgCl2, 50 mM NaCl, 1 mM EGTA, 0.01% P-20, 0.05% BSA, and 2 mM DTT prepared with nuclease free water.
A serial dilution (1:3 scheme) of the compounds were prepared in neat DMSO, with 100 nL of the compounds dispensed in the 384 wells assay plate. An 1-hr pre-incubation of the compounds with enzyme was included. A His-tagged construct of WRN (AA S2-S1235) was produced and used for the ATPase assay. Maximum inhibition control wells were set up with the addition of only assay buffer, and no inhibition control wells were set up with neat DMSO without test compounds. The reaction was initiated by addition of 5 μL substrate mix (200 μM ultrapure ATP, and 50 nM dsDNA prepared in assay buffer) and incubated at 25° C. for 35 min. A forked dsDNA oligomer substrate was prepared by annealing equal amounts of oligo GPat-1 ([BHQ2][…]) and oligo GPat-2 ([…][TAM]) and was used as dsDNA substrate for WRN ATPase assay. A typical ATPase reaction consists of 25 nM forked dsDNA, 100 μM ATP, and 1 nM WRN prepared in assay buffer. The WRN ATPase reaction was stopped by the addition of 5 μL of ADP-Glo Reagent from ADP-Glo™ Kinase Assay kit and incubated for 40 min to deplete the unreacted ATP. Afterwards, 5 μL of Kinase Detection Reagent from the ADP-Glo™ Kinase Assay kit was added and incubated for 1 hr for the development of luminescence signal.
Luminesce signals were measured on BMG PHERAstar FSX using luminescence protocol. Data analysis was carried out using Genedata software following % of control normalization. Fitting parameters include dose response IC50, Hill slope (n), maximum inhibition (S∞), and minimum inhibition (S0). The reported IC50 values for compounds in this invention are the geometric means of at least 2 independent replicates.

T1 sequence (Q14191 2-1235): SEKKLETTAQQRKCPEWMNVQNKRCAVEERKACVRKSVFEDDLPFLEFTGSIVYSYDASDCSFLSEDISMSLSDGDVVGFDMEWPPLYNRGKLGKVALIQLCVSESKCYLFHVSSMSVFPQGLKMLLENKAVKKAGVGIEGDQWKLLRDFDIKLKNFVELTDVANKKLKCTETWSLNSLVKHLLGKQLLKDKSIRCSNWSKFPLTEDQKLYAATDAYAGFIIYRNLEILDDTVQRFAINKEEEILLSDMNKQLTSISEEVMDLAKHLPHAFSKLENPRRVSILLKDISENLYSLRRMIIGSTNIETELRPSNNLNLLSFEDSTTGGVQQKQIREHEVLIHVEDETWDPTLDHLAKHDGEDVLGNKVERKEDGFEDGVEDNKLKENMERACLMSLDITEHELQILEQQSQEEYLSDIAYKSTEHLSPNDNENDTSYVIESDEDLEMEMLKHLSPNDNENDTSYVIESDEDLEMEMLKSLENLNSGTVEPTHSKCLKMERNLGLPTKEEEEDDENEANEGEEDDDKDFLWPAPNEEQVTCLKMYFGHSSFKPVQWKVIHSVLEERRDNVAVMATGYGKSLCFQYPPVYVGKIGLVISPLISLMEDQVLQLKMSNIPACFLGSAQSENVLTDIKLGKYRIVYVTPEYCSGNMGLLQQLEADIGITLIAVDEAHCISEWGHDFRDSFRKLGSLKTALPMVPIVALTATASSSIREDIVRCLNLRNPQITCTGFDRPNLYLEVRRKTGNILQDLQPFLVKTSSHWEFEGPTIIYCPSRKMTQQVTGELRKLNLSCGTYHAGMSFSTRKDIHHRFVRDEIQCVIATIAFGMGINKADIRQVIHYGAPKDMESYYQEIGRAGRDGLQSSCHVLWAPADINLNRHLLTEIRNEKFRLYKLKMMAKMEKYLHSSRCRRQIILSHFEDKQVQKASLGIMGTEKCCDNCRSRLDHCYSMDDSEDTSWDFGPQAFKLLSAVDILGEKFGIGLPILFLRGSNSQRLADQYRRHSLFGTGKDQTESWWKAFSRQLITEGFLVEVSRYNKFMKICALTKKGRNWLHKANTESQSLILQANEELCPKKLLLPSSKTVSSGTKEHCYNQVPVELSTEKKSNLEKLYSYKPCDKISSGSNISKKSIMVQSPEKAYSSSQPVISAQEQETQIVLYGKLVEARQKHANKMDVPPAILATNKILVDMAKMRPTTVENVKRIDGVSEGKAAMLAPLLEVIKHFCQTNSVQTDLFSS

For `C=CC(=O)Nc1ccccc1-n1c(CC)nc2c(c(C)c(C)n2CC(=O)Nc2ccc(C(F)(F)F)cc2Cl)c1=O` [Example 4, N-(2-(7-(2-((2-Chloro-4-(trifluoromethyl)phenyl)amino)-2-oxoethyl)-2-ethyl-5,6-dimethyl-4-oxo-4,7-dihydro-3H-pyrrolo[2,3-d]pyrimidin-3-yl)phenyl)acrylamide], the IC50 at WRN [1] and at WRN [2] was < 100 nM in each case.

For the compound `C=CC(=O)Nc1cc(C(=O)NCC)ccc1-n1c(CC)nc2c(c(C)c(C)n2CC(=O)Nc2ccc(C(F)(F)F)cc2)c1=O` [Example 6, 3-Acrylamido-N-ethyl-4-(2-ethyl-5,6-dimethyl-4-oxo-7-(2-oxo-2-((4-(trifluoromethyl)phenyl)amino)ethyl)-4,7-dihydro-3H-pyrrolo[2,3-d]pyrimidin-3-yl)benzamide, trifluoroacetate salt], the IC50 on WRN [1] and against WRN [2] was < 100 nM throughout.

On to `C=CC(=O)Nc1cc(C(=O)NCC)ccc1-n1c(CC)nc2c(c(C)c(C)n2CC(=O)Nc2ccc(F)cc2)c1=O` [Example 7, 3-Acrylamido-N-ethyl-4-(2-ethyl-7-(2-((4-fluorophenyl)amino)-2-oxoethyl)-5,6-dimethyl-4-oxo-4,7-dihydro-3H-pyrrolo[2,3-d]pyrimidin-3-yl)benzamide, trifluoroacetate salt], for which the IC50 against WRN [1] and on WRN [2] was < 100 nM throughout.

For `C=CS(=O)(=O)Nc1ccccc1-n1c(CC)nc2c(cnn2CC(=O)Nc2ccc(C(F)(F)F)cc2)c1=O` [Example 2, 2-(6-Ethyl-4-oxo-5-(2-(vinylsulfonamido)phenyl)-4,5-dihydro-1H-pyrazolo[3,4-d]pyrimidin-1-yl)-N-(4-(trifluoromethyl)phenyl)acetamide], the IC50 against WRN [1] and against WRN [2] was < 100 nM each time.

As to `C=CC(=O)Nc1ccccc1-n1c(CC)nc2c(cnn2CC(=O)Nc2ccc(C(F)(F)F)cc2)c1=O` [Example 1, N-(2-(6-Ethyl-4-oxo-1-(2-oxo-2-((4-(trifluoromethyl)phenyl)amino)ethyl)-1,4-dihydro-5H-pyrazolo[3,4-d]pyrimidin-5-yl)phenyl)acrylamide], the IC50 against WRN [1] and at WRN [2] was 1000 to 5000 nM each time.

Consider `C=CC(=O)Nc1ccccc1-n1c(CC)nc2c(c(C)c(C)n2CC(=O)Nc2ccc(C(F)(F)F)cc2)c1=O` [Example 3, N-(2-(2-Ethyl-5,6-dimethyl-4-oxo-7-(2-oxo-2-((4-(trifluoromethyl)phenyl)amino)ethyl)-4,7-dihydro-3H-pyrrolo[2,3-d]pyrimidin-3-yl)phenyl)acrylamide], for which the IC50 against WRN [1] and at WRN [2] was < 100 nM in each case.

In the case of `C=CC(=O)Nc1ccccc1-n1c(CC)nc2c(c(C)c(C)n2CC(=O)Nc2ccc(F)cc2)c1=O` [Example 5, N-(2-(2-Ethyl-7-(2-((4-fluorophenyl)amino)-2-oxoethyl)-5,6-dimethyl-4-oxo-4,7-dihydro-3H-pyrrolo[2,3-d]pyrimidin-3-yl)phenyl)acrylamide], the IC50 against WRN [1] and at WRN [2] was < 100 nM throughout.
